Assays:
[1] = test system: STAT6; assay: STAT6 inhibition test: (GLS)x8/pTA-Luc luciferase reporter in U2-OS cells stimulated with human IL-4; assay type: cell-based; conditions: human IL-4 40 ng/mL; for Inhibition Rate of STAT6 (%): compound 2 μM, 8 hours; for IC50: from inhibition rates at 1, 0.1, 0.01 and 0.001 μM, read-out: IC50 against activation of STAT6
Text: (1) Construction of a STAT6 Reporter Plasmid
The Oligonucleotides (SEQ ID: 1, 2) containing two copies of STAT6 binding sequences (refer to J. Biol. Chem., vol. 276, No. 9, pp. 6675-6688 (2001).) were synthesized, and integrated into the enhancer region of the reporter plasmid pTA-Luc Vector (CLONTECH Laboratories, Inc.) at the restriction enzyme BgIII site.
When the oligonucleotide is integrated in positive direction into the plasmid, the upstream BglII site is not reconstructed. Therefore, STAT6 binding sequences can be increased by repeating integration of the oligonucleotide at the restriction enzyme BglII site.
In the present test, a plasmid including eight integrated STAT6 binding sequences was constructed and provided for the reporter assay as (GLS)x8/pTA-Luc. Confirmation of the sequences was carried out using an automated fluorescence sequencer (Model 310 (Applied Biosystems)).
(2) Transfection into U2-OS Cells and Inhibition Test for STAT6 Activation
U2-OS cells were seeded to at 2×10^4 cells/well in 96-well culture plates, and transfection was carried out using FuGENE 6 Transfection Reagent (Roche Diagnostics GmbH). The procedures of the transfection are shown below.
11 μg of reporter plasmid ((GLS)x8/pTA-Luc) and 1.1 μg of pCMV β (CLONTECH Laboratories, Inc.) were mixed in 1.1 mL of OPTI-MEM I medium (GIBCO BRL) (solution (A)).
33 μL of FuGENE 6 Transfection Reagent was mixed in 1.1 mL of OPTI-MEM I medium (solution (B)).
(§1) The above solution (A) and solution (B) were mixed, let them stand for 15 minutes at room temperature, then, 8.8 mL of OPTI-MEM I medium was added and diluted.
To this transfection solution, U2-OS cell suspension (11 mL) in McCoy's 5A medium (GIBCO BRL) containing 10% Fetal Bovine Serum (FBS; GIBCO BRL) at 2×10^5 cells/mL was added and well mixed.
(§2) 0.2 mL of the above solution was dispensed into each well of 96-well culture plates, and incubated for 24 hours (37° C., 5% CO2).
After removal of 50 μL of medium from each well, 50 μL of McCoy's 5A medium (serum-free) containing compound, of the present application was added to a final concentration of 0.01˜2 μM (0.001, 0.01, 0.1, 0.5, 1 or 2 μM), and the plates were incubated for 2 hours (37° C., 5% CO2).
10 μL of the McCoy's 5A medium (serum-free) containing human IL-4 (R&D Systems, Inc) was added to each well to achieve a final concentration of 40 ng/mL, and incubated for 8 hours (37° C., 5% CO2).
(§3) Medium was completely removed and plates were preserved at −80° C. until measurements.
(§4) Cell lysates were prepared by adding 40 μL of Passive Lysis Buffer (Promega Corporation) to each well.
(§5) 10 μL of each lysate was transferred to 96-well white plates. 50 μL of PicaGene L.T.2.0 (TOYO INK MFG. CO., LTD.) was added to each well, then, luminescence was measured after leaving for 10 minutes at room temperature.
(§6) 10 μL of each lysate was transferred to 96-well black plates. 100 μL of Z Buffer (preparation method will be explained later) was added to each well, and fluorescence was measured immediately.
(§7) 10 μL of each lysate was transferred to 96-well clear plates. 200 μL of protein assay reagent prepared from the BCA Protein Assay Kit (Pierce Biotechnology, Inc.) was added to each well, and, absorbance was measured after incubation for 30 minutes at 37° C.
(§8) For measurements of luminescence, fluorescence, and absorbance, microplate reader GENios (TECAN G.M.B.H.) was used.
(4) Calculation of Inhibition Rate
Luminescence values that show the degree of activation by IL-4 stimulation were normalized by β-gal values that show transfection efficiency. Using the normalized values, the following calculations were carried out using the luminescence values increased by IL-4 stimulation. Inhibition Rate(%)=[…] E: In the presence of the compound of the present application, increased luminescence value by IL-4 stimulation C: Without the presence of the compound of the present application, increased luminescence value by IL-4 stimulation […]

[2] = test system: NF-κB; assay: NF-κB inhibition test: pNFκB-Luc luciferase reporter in U2-OS cells stimulated with human TNF α; assay type: cell-based; conditions: human TNF α 10 ng/mL; for Inhibition Rate of NF-κB (%): compound 2 μM, 8 hours; for IC50: from inhibition rates at 1, 0.1, 0.01 and 0.001 μM, read-out: IC50 against activation of NF-κB
Experimental: (1) Transfection to U2-OS Cells and Inhibition Test of Activation
U2-OS cells were seeded at 2×10^4 cells/well in 96-well culture plate, and transfection was carried out using FuGENE 6 Transfection Reagent (Roche Diagnostics GmbH). The procedures of the transfection are shown below.
11 μg of reporter plasmid (pNFκB-Luc; Stratagene Corporation) and 1.1 μg of pCMV β (CLONTECH Laboratories, Inc.) were mixed in 1.1 mL of OPTI-MEM I medium (GIBCO BRL) (solution (A)).
[…] of FuGENE 6 Transfection Reagent was mixed in 1.1 mL of OPTI-MEM I medium (solution (B)).
as §1
To this transfection solution, U2-OS cell suspension (11 mL) in McCoy's 5A medium (GIBCO BRL) containing 10% Fetal Bovine Serum (FBS; GIBCO BRL) at […] was added and well mixed.
as §2
After removal of 50 μL of medium from each well, 50 μL of McCoy's 5A medium (serum-free) containing compound of the present application was added to a final concentration of 0.01˜2 μM (0.001, 0.01, 0.1, 0.5, 1 or 2 μM), and the plates were incubated for 2 hours (37° C., 5% CO2).
10 μL of the McCoy's 5A medium (serum-free) containing human TNF α (PEPROTECH EC Ltd.) was added to each well to achieve a final concentration of 10 ng/mL, and incubated for 8 hours (37° C., 5% CO2).
as §3, §4, §5, §6, §7, §8
(3) Calculation of Inhibition Rate
Luminescence values that show the degree of activation by TNF α stimulation were normalized by β-gal values that show transfection efficiency. Using the normalized values, the following calculation was carried out using the luminescence values that increased by TNF α stimulation. Inhibition Rate(%)=[…] E: In the presence of the compound of the present application, increased luminescence values by TNF α stimulation C: Without the presence of the compound of the present application, increased luminescence values by TNF α, stimulation
The values of protein assay by BCA reagent were used for a simple assessment of cytotoxicity, and not used for the calculation of inhibition rates.
NF-κB Inhibition Rates are shown below. The values in parentheses in the table represent the concentration of the compound of the present application.
NF-κB inhibition rates where the concentrations of the compound of the present application were 1, 0.1, 0.01 and 0.001 μM were calculated, and the 50% inhibitory concentrations (IC50) of the compounds of the present application against activation of NF-κB were evaluated.

Structure (SMILES) | Inhibition Rate of STAT6 (%) [1] | Inhibition Rate of NF-κB (%) [2] | IC50 [1] [nM] | IC50 [2] [nM]
O=C(Nc1ccc(N2CCSCC2)c(F)c1)c1cc(Cl)ccc1O [compound 26] | 95 (2 μM) % | 68 (2 μM) % |  | 
O=C(Nc1ccc(OC2CCNCC2)c(F)c1)c1cc(Cl)ccc1O [compound 31] | 93 (2 μM) % | 92 (2 μM) % | 6.37 | 12.2
Cl.O=C(Nc1ccc(OC2CCNCC2)c(F)c1)c1cc(Cl)ccc1O [compound 32] | 92 (2 μM) % | 91 (2 μM) % | 5.88 | 13.7
CN1CCCN(c2ccc(NC(=O)c3cc(Cl)ccc3O)cc2F)CC1 [compound 34] | 94 (2 μM) % | 95 (2 μM) % | 3.22 | 7.04
O=C(Nc1ccc(N2CCN(C(=O)CCN3CCCCC3)CC2)c(F)c1)c1cc(Cl)ccc1O [compound 35] | 26 (2 μM) % | 24 (2 μM) % |  | 
CN1CCC(Oc2ccc(NC(=O)c3cc(Cl)ccc3O)cc2F)C1 (centres unmarked) [compound 38] | 77 (2 μM) % | 64 (2 μM) % |  | 
O=C1CCN(c2ccc(NC(=O)c3cc(Cl)ccc3O)cc2F)CC1 [compound 39] | 46 (2 μM) % | 16 (2 μM) % |  | 
NC1CCN(c2ccc(NC(=O)c3cc(Cl)ccc3O)cc2F)C1 (centres unmarked) [compound 42] | 41 (2 μM) % | 24 (2 μM) % |  | 
O=C(Nc1ccc(N2CCC(O)CC2)c(F)c1)c1cc(Cl)ccc1O [compound 43] | 46 (2 μM) % | 32 (2 μM) % |  | 
O=C(Nc1ccc(N2CCCNCC2)c(F)c1)c1cc(Cl)ccc1O [compound 44] | 94 (2 μM) % | 94 (2 μM) % | 7.51 | 15.7
Cl.O=C(Nc1ccc(OCC2CCNCC2)c(F)c1)c1cc(Cl)ccc1O [compound 45] | 76 (2 μM) % | 68 (2 μM) % |  | 
Cl.NCC1CCN(c2ccc(NC(=O)c3cc(Cl)ccc3O)cc2F)CC1 [compound 47] | 96 (2 μM) % | 95 (2 μM) % | 7.98 | 14
NC(=O)C1CCCN(c2ccc(NC(=O)c3cc(Cl)ccc3O)cc2F)C1 (centres unmarked) [compound 48] | 42 (2 μM) % | 40 (2 μM) % |  | 
Cl.O=C(Nc1ccc(OCC2CCCNC2)c(F)c1)c1cc(Cl)ccc1O (centres unmarked) [compound 49] | 84 (2 μM) % | 87 (2 μM) % | 14.8 | 28.4
CN1CCCC(COc2ccc(NC(=O)c3cc(Cl)ccc3O)cc2F)C1 (centres unmarked) [compound 50] | 43 (2 μM) % | 45 (2 μM) % |  | 
CN1CCC(COc2ccc(NC(=O)c3cc(Cl)ccc3O)cc2F)CC1 [compound 51] | 83 (2 μM) % | 86 (2 μM) % | 9 | 17.9
O=C(Nc1ccc(N2CCCN(Cc3ccccc3)CC2)c(F)c1)c1cc(Cl)ccc1O [compound 52] | 55 (2 μM) % | 27 (2 μM) % |  | 
CCN1CCCN(c2ccc(NC(=O)c3cc(Cl)ccc3O)cc2F)CC1 [compound 53] | 57 (2 μM) % | 45 (2 μM) % |  | 
Cl.NCC1CCCN(c2ccc(NC(=O)c3cc(Cl)ccc3O)cc2F)C1 (centres unmarked) [compound 54] | 89 (2 μM) % | 84 (2 μM) % | 15 | 43.5
Cl.O=C(Nc1ccc(OC2CCNC2)c(F)c1)c1cc(Cl)ccc1O (centres unmarked) [compound 55] | 35 (2 μM) % | 16 (2 μM) % |  | 
Cc1ccc(O)c(C(=O)Nc2ccc(N3CCN(C)CC3)c(F)c2)c1.Cl [compound 57] | 75 (2 μM) % | 62 (2 μM) % |  | 
CN1CCN(c2ccc(NC(=O)c3ccc(F)cc3O)cc2F)CC1.Cl [compound 58] | 70 (2 μM) % | 59 (2 μM) % |  | 
CN1CCN(c2ccc(NC(=O)c3cc(F)ccc3O)cc2F)CC1.Cl [compound 59] | 60 (2 μM) % | 43 (2 μM) % |  | 
CN1CCN(c2ccc(NC(=O)c3cccc(Cl)c3O)cc2F)CC1.Cl [compound 60] | 26 (2 μM) % | 16 (2 μM) % |  | 
CN1CCN(c2ccc(NC(=O)c3ccc(Cl)cc3O)cc2F)CC1.Cl [compound 61] | 86 (2 μM) % | 80 (2 μM) % |  | 
CN1CCN(c2ccc(NC(=O)c3cc(C(F)(F)F)ccc3O)cc2F)CC1.Cl [compound 62] | 96 (2 μM) % | 89 (2 μM) % |  | 
NC1CCC(Oc2ccc(NC(=O)c3cc(Cl)ccc3O)cc2F)CC1 (centres unmarked) [compound 65] | 42 (2 μM) % | 20 (2 μM) % |  | 
NC1CCN(c2ccc(NC(=O)c3cc(Cl)ccc3O)cc2F)CC1 [compound 66] | 85 (2 μM) % | 92 (2 μM) % | 3.79 | 9.74

Source: patent publication US7671058B2, “N-(3,4-disubstituted phenyl) salicylamide derivatives” (Institute of Medicinal Molecular Design, Inc., priority 2006, dated 2010)
